Source: paper PMC4335020, “Single Oral Dose Pharmacokinetics of Decursin and Decursinol Angelate in Healthy Adult Men and Women” (PLoS ONE, 2015)
Like-named read-outs stand apart in the source and are kept apart here.

Assay: Single oral dose human plasma pharmacokinetics of D, DA and DOH after Cogni.Q
Format: in vivo
Conditions: for AUC(0-t) / Cmax / half-life / Tmax: human, plasma
Description: Ten healthy male and 10 female subjects were recruited by public announcement in Amarillo, TX, from January 2013 to April 2013 (see Fig. 1 CONSORT diagram). The sample size for each gender was chosen without power calculation due to the lack of prior knowledge of PK parameter variance in humans. After receiving informed consent verbally and in writing, the health status of each candidate was confirmed by health questionnaire, plasma biochemistry (hepatic and renal functions), complete blood cell count (CBC), and a physical examination by a participating academic physician. Subjects with diabetes, or pregnant, perinatal and breastfeeding women were excluded. For the 48 hours preceding study visit until the final blood draw, all subjects were instructed to avoid taking any prescription or nonprescription drugs, vitamins, and herbal/dietary supplements. Each subject was compensated for participating in the study per TTUHSC IRB approved rate.
Eligible subjects arrived at our clinical facility at 0700 (7:00 am) on the test day after a fast beginning at 2200 (10:00 pm) the previous night. After a brief review of vital signs, the nurse placed an intravenous (IV) line with saline drip in one arm of each subject. A baseline pre-dose (hour 0) blood sample was drawn through the IV line; after that subjects swallowed four Cogni.Q vegicaps with 240 mL of water at hour 0 under direct supervision. Subjects stayed at the clinical facility in their room for the next 12 hours, returning at 24 and 48 hours. Blood was drawn at baseline (hour 0) and at 0.5, 1, 2, 3, 4, 6, 8, 12, 24 and 48 hours after dosing into Vacutainer Blood Collection Tube (Becton-Dickinson, Franklin Lakes, NJ. Product Number: 367874, Sodium heparin was used as anti-coagulant). Water was allowed as desired except for within the first hour after Cogni.Q consumption. All subjects received standardized meals at post-dose hours 4.5 and 9.5 but no food was allowed for at least the first 4 hours post-dose.
Plasma was prepared by centrifuging the heparinized blood at 1000 g for 15 minutes at room temperature. Urine samples (40mL) were collected within time spans of 0–4, 4–8, 8–12 and 12–24 hours (total volume of urine was recorded). All plasma and urine samples were put on dry ice immediately and then stored at -80°C freezer until analysis.
Plasma samples were extracted with a validated solid supported liquid extraction (SLE) method facilitated with a positive pressure manifold (Biotage, Charlotte, NC). Briefly, 100 μL of plasma sample was spiked with 5 μL of 10 ng/μL prednisolone (IS), diluted with 200 μL of LC-MS grade water, mixed and loaded onto ISOLUTE SLE+ 400 μL Array Well cartridges (Biotage, Charlotte, NC). A pulse of minimum positive pressure was applied to facilitate the samples absorption into the cartridges. After the samples were allowed to absorb for 5 min, the compounds were eluted with 2×500 μL tert-butyl methyl ether. The eluent was dried in a Speedvac and the resulting residue was reconstituted in 50 μL of methanol for UHPLC-MS/MS analysis.
Eight-point calibration curves were constructed for D, DA and DOH, at concentrations of 0.1, 0.5, 1, 5, 10, 20, 50 and 100 μg/L for D and DA, and at concentrations of 1, 5, 10, 50, 100, 200, 500 and 1000 μg/L for DOH, respectively. The linear range was 0.1–100 μg/L (0.3–300 nmol/L), 0.1–100 μg/L (0.3–300 nmol/L) and 1–1000 μg/L (4–4000 nmol/L) for D, DA and DOH, respectively. The inter- and intra-assay CV were lower than 6.5% and the accuracy was between 90–105%. Calibration curve was run for each batch of samples analyzed. The mean calibration curve correlation coefficient (r) for D, DA and DOH was 0.999, 0.999 and 0.998, respectively (data from 7–10 calibration curves). In addition, 70% of the plasma samples were extracted and analyzed twice, the data from two replicate analyses were nearly identical and combined for final data analyses and presentation. […]

Structure (SMILES): CC(C)=CC(=O)O[C@H]1Cc2cc3ccc(=O)oc3cc2OC1(C)C [D, decursin]
- AUC(0-t) (oral, 4 Cogni.Q vegicaps, subject S10 (185 lb), read-out: AUC0-48h): 46.6 nmol·h/L
- Cmax (oral, 4 Cogni.Q vegicaps, subject S10 (185 lb), read-out: Cmax): 5.7 nM
- half-life (oral, 4 Cogni.Q vegicaps, subject S10 (185 lb), read-out: Terminal t1/2, h (converted)): 13.4 h
- Tmax (oral, 4 Cogni.Q vegicaps, subject S10 (185 lb), read-out: Tmax): 0.5 h
- AUC(0-t) (oral, 4 Cogni.Q vegicaps, subject S11 (178 lb), read-out: AUC0-48h): 14.7 nmol·h/L
- Cmax (oral, 4 Cogni.Q vegicaps, subject S11 (178 lb), read-out: Cmax): 2.5 nM
- half-life (oral, 4 Cogni.Q vegicaps, subject S11 (178 lb), read-out: Terminal t1/2, h (converted)): 20.2 h
- Tmax (oral, 4 Cogni.Q vegicaps, subject S11 (178 lb), read-out: Tmax): 1 h
- AUC(0-t) (oral, 4 Cogni.Q vegicaps, subject S12 (169 lb), read-out: AUC0-48h): 24.8 nmol·h/L
- Cmax (oral, 4 Cogni.Q vegicaps, subject S12 (169 lb), read-out: Cmax): 1.3 nM
- half-life (oral, 4 Cogni.Q vegicaps, subject S12 (169 lb), read-out: Terminal t1/2, h (converted)): 15.7 h
- Tmax (oral, 4 Cogni.Q vegicaps, subject S12 (169 lb), read-out: Tmax): 2 h
- AUC(0-t) (oral, 4 Cogni.Q vegicaps, subject S13 (192 lb), read-out: AUC0-48h): 13.5 nmol·h/L
- Cmax (oral, 4 Cogni.Q vegicaps, subject S13 (192 lb), read-out: Cmax): 1.3 nM
- half-life (oral, 4 Cogni.Q vegicaps, subject S13 (192 lb), read-out: Terminal t1/2, h (converted)): 25.8 h
- Tmax (oral, 4 Cogni.Q vegicaps, subject S13 (192 lb), read-out: Tmax): 0.5 h
- AUC(0-t) (oral, 4 Cogni.Q vegicaps, subject S14 (200 lb), read-out: AUC0-48h): 21.5 nmol·h/L
- Cmax (oral, 4 Cogni.Q vegicaps, subject S14 (200 lb), read-out: Cmax): 8.6 nM
- half-life (oral, 4 Cogni.Q vegicaps, subject S14 (200 lb), read-out: Terminal t1/2, h (converted)): 4.5 h
- Tmax (oral, 4 Cogni.Q vegicaps, subject S14 (200 lb), read-out: Tmax): 1 h
- AUC(0-t) (oral, 4 Cogni.Q vegicaps, subject S15 (177 lb), read-out: AUC0-48h): 23.8 nmol·h/L
- Cmax (oral, 4 Cogni.Q vegicaps, subject S15 (177 lb), read-out: Cmax): 16.8 nM
- half-life (oral, 4 Cogni.Q vegicaps, subject S15 (177 lb), read-out: Terminal t1/2, h (converted)): 26.5 h
- Tmax (oral, 4 Cogni.Q vegicaps, subject S15 (177 lb), read-out: Tmax): 1 h
- Tmax (oral, 4 Cogni.Q vegicaps, subject S16 (175 lb), read-out: Tmax): 3 h
- AUC(0-t) (oral, 4 Cogni.Q vegicaps, subject S17 (147 lb), read-out: AUC0-48h): 53.9 nmol·h/L
- Cmax (oral, 4 Cogni.Q vegicaps, subject S17 (147 lb), read-out: Cmax): 9.8 nM
- half-life (oral, 4 Cogni.Q vegicaps, subject S17 (147 lb), read-out: Terminal t1/2, h (converted)): 22.7 h
- Tmax (oral, 4 Cogni.Q vegicaps, subject S17 (147 lb), read-out: Tmax): 2 h
- half-life (oral, 4 Cogni.Q vegicaps, subject S18 (180 lb), outlier, excluded from means, read-out: Terminal t1/2, h (converted)): 138 h
- AUC(0-t) (oral, 4 Cogni.Q vegicaps, subject S18 (180 lb), read-out: AUC0-48h): 25.8 nmol·h/L
- Cmax (oral, 4 Cogni.Q vegicaps, subject S18 (180 lb), read-out: Cmax): 1.7 nM
- Tmax (oral, 4 Cogni.Q vegicaps, subject S18 (180 lb), read-out: Tmax): 4 h
- AUC(0-t) (oral, 4 Cogni.Q vegicaps, subject S19 (130 lb), read-out: AUC0-48h): 35.7 nmol·h/L
- Cmax (oral, 4 Cogni.Q vegicaps, subject S19 (130 lb), read-out: Cmax): 1.7 nM
- half-life (oral, 4 Cogni.Q vegicaps, subject S19 (130 lb), read-out: Terminal t1/2, h (converted)): 8.5 h
- Tmax (oral, 4 Cogni.Q vegicaps, subject S19 (130 lb), read-out: Tmax): 3 h
- half-life (oral, subject S16 (175 lb), outlier, excluded from means, read-out: Terminal t1/2, h (converted)): 9.4 h
- AUC(0-t) (oral, subject S16 (175 lb), read-out: AUC0-48h): 22.2 nmol·h/L
- Cmax (oral, subject S16 (175 lb), read-out: Cmax): 2.8 nM
- AUC(0-t) (oral, subject S20 (200 lb), read-out: AUC0-48h): 19.1 nmol·h/L
- Cmax (oral, subject S20 (200 lb), read-out: Cmax): 1.3 nM
- half-life (oral, subject S20 (200 lb), read-out: Terminal t1/2, h (converted)): 18.4 h
- Tmax (oral, subject S20 (200 lb), read-out: Tmax): 2 h
- conversion of D/DA to DOH (humans, from plasma AUC0–48h values): > 98%
- AUC(0-t) (male, oral, 4 Cogni.Q vegicaps, Men n=10 (S1 Table), read-out: AUC0-48h, Mean): 28.5 nmol·h/L
- Cmax (male, oral, 4 Cogni.Q vegicaps, Men n=10 (S1 Table), read-out: Cmax, nM, Mean): 5.22 nM
- Tmax (male, oral, 4 Cogni.Q vegicaps, Men n=10 (S1 Table), read-out: Tmax, h, Mean): 1.7 h
- half-life (male, oral, Men, outliers excluded (S1 Table), read-out: Terminal t1/2, h, Mean (converted)): 17.7 h
- AUC(0-t) (male, po, Men N = 10, single oral dose Cogni.Q, read-out: AUC0–48h, h.nmol/L Mean (SD)): 28.5 nmol·h/L
- Cmax (male, po, Men N = 10, single oral dose Cogni.Q, read-out: Cmax, nmol/L, Mean (SD)): 5.2 nM
- Tmax (male, po, Men N = 10, single oral dose Cogni.Q, read-out: Tmax, h, Mean (SD)): 1.7 h
- half-life (male, po, Men, outlier subjects excluded, single oral dose Cogni.Q, read-out: T1/2, h, terminal Mean (SD) (converted)): 17.7 h
